Data published in the supplement of paper PMC10307832.

Assays:
Assay in all cases: relative viability (nuclei count vs DMSO), 5 days (fraction); higher = more cells survive
[1] = compound: CC1=C(N=C(N=C1N)[C@H](CC(=O)N)NC[C@@H](C(=O)N)N)C(=O)N[C@@H]([C@H](C2=CN=CN2)OC3C(C(C(C(O3)CO)O)O)OC4C(C(C(C(O4)CO)O)OC(=O)N)O)C(=O)N[C@H](C)[C@H]([C@H](C)C(=O)N[C@@H]([C@@H](C)O)C(=O)NCCC5=NC(=CS5)C6=NC(=CS6)C(=O)NCCC[S+](C)C)O [Bleomycin] + Cc1nc(NC(=O)N2CCC[C@H]2C(N)=O)sc1-c1ccnc(C(C)(C)C(F)(F)F)c1 [Alpelisib] (partner 2 µM); settings: main component drawn
Outline: (§1)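 A single step with final 0.05% Triton X-100, 1% formaldehyde and 1 ug/ml Hoechst fixed the cells and stained nuclei 5 days after treatment. Lung cancer cell lines in 1536-well plates had been treated by pin tool the day after seeding with one drug alone or a fixed anchor-drug dose plus five library-drug doses (not always all listed) in √10 steps, and nuclei were counted on 4× images. Relative viability is the ratio of nuclei in treated wells to nuclei in vehicle wells, taken as the median of duplicate plates.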

[2] = compound: COc1cc([C@@H]2c3cc4c(cc3[C@@H](O[C@@H]3O[C@@H]5CO[C@@H](C)O[C@H]5[C@H](O)[C@H]3O)[C@H]3COC(=O)[C@H]23)OCO4)cc(OC)c1O [Etoposide] + CC(=O)c1c(C)c2cnc(Nc3ccc(N4CCNCC4)cn3)nc2n(C2CCCC2)c1=O [Palbociclib] (partner 0.5 µM)
Outline: as §1

[3] = compound: COc1cc([C@@H]2c3cc4c(cc3[C@@H](O[C@@H]3O[C@@H]5CO[C@@H](C)O[C@H]5[C@H](O)[C@H]3O)[C@H]3COC(=O)[C@H]23)OCO4)cc(OC)c1O [Etoposide] + CC(C)C[C@H](NC(=O)[C@H](Cc1ccccc1)NC(=O)c1cnccn1)B(O)O [Bortezomib] (partner 0.002 µM)
Outline: as §1

[4] = compound: COc1cc([C@@H]2c3cc4c(cc3[C@@H](O[C@@H]3O[C@@H]5CO[C@@H](C)O[C@H]5[C@H](O)[C@H]3O)[C@H]3COC(=O)[C@H]23)OCO4)cc(OC)c1O [Etoposide] + NC(=O)Nc1cc(-c2cccc(F)c2)sc1C(=O)N[C@H]1CCCNC1 [AZD7762] (partner 0.2 µM)
Outline: as §1

Cell Line	relative viability ([1]; first compound 0.01 µM)	relative viability ([1]; first compound 0.03162 µM)	relative viability ([1]; first compound 0.1 µM)	relative viability ([1]; first compound 0.3162 µM)	relative viability ([1]; first compound 1 µM)	relative viability ([2]; first compound 0.01 µM)	relative viability ([2]; first compound 0.03162 µM)	relative viability ([2]; first compound 0.1 µM)	relative viability ([2]; first compound 0.3162 µM)	relative viability ([2]; first compound 1 µM)	relative viability ([3]; first compound 0.01 µM)	relative viability ([3]; first compound 0.03162 µM)	relative viability ([3]; first compound 0.1 µM)	relative viability ([3]; first compound 0.3162 µM)	relative viability ([3]; first compound 1 µM)	relative viability ([4]; first compound 0.01 µM)	relative viability ([4]; first compound 0.03162 µM)	relative viability ([4]; first compound 0.1 µM)	relative viability ([4]; first compound 0.3162 µM)	relative viability ([4]; first compound 1 µM)
RERF-LC-KJ	0.58	0.589	0.53	0.253	0.266	1.04	1.19	0.918	0.912	0.606	1.04	1.2	0.986	1.03	0.923	0.935	1.1	0.583	0.861	0.967
LC-2-ad	0.699	0.66	0.307	0.126	0.106	0.52	0.509	0.557	0.455	0.452	0.9	1.08	0.977	0.742	0.209	0.762	0.882	0.853	0.741	0.571
CAL-12T	0.666	0.883	0.433	0.235	0.244	0.346	0.505	0.299	0.306	0.285	1.07	1.08	0.846	0.648	0.385	0.567	0.792	0.613	0.477	0.409
BEN	1.01	0.921	0.937	0.762	0.738	0.491	0.487	–	0.454	0.539	0.728	0.869	–	0.565	0.6	0.828	0.818	–	0.665	0.606
EMC-BAC-2	0.647	0.643	0.653	0.355	0.232	0.495	0.49	0.399	0.321	0.254	1.07	1.03	0.729	0.452	0.196	1.06	1.11	0.688	0.639	0.334
LU99A	0.345	0.332	0.239	0.137	0.118	0.392	0.427	0.266	0.226	0.166	1.31	1.31	0.661	0.432	0.19	0.424	0.351	0.17	0.175	0.117
ABC-1	0.883	1.03	0.615	0.425	0.298	0.572	0.71	0.529	0.515	0.419	0.301	0.33	0.261	0.296	0.237	0.978	0.851	0.468	0.425	0.369
NCI-H2405	0.648	0.704	0.615	0.312	0.306	0.536	0.549	0.355	0.477	0.328	0.987	1.05	0.753	0.531	0.746	0.754	0.765	0.728	0.638	0.317
NCI-H1993	0.648	0.642	0.618	0.536	0.522	–	0.773	0.481	0.659	0.482	0.954	1.12	0.631	0.919	0.473	–	0.838	0.474	0.759	0.596
NCI-H441	–	0.699	0.645	0.444	0.279	0.194	0.251	0.177	0.191	0.128	0.457	0.469	0.447	0.286	0.177	1.31	0.966	1.1	0.512	0.4
PC-14	0.626	0.534	0.303	0.0745	0.067	0.447	0.594	0.652	0.289	0.125	0.9	1.08	0.918	0.687	0.666	0.338	0.396	0.317	0.307	0.17
HARA	0.682	0.784	0.818	0.415	0.373	0.242	0.335	0.245	0.269	0.203	1.04	1.29	1.11	0.995	0.235	0.436	0.347	0.236	0.301	0.291
NCI-H2126	0.758	0.789	0.808	0.6	0.552	0.32	0.39	0.316	0.368	0.34	1.19	1.09	0.801	1	0.659	0.93	1.08	0.681	0.948	0.919
NCI-H1437	0.799	0.922	0.83	0.406	0.396	0.278	0.352	0.279	0.293	0.269	0.378	0.547	0.492	0.243	0.273	1.03	1.11	1.14	1.07	0.722
NCI-H1792	0.631	0.61	0.623	0.228	0.221	0.579	0.636	0.598	0.606	0.461	0.899	0.878	0.819	0.897	0.581	0.485	0.661	–	0.471	0.122
201T	0.956	0.949	0.96	0.862	0.753	0.366	0.35	0.325	0.349	0.385	1.04	1.1	1.01	1.04	0.765	0.612	0.751	0.47	0.492	0.37
HCC-44	0.45	0.27	0.224	0.212	0.162	0.99	0.94	1.02	0.947	0.701	1.01	0.905	1.02	0.781	0.418	1.02	1.05	1.15	1.01	0.95
NCI-H647	0.575	0.448	0.337	0.109	0.0917	0.423	0.458	0.321	0.258	0.216	0.807	1.4	0.72	0.298	0.147	0.417	0.323	0.307	0.165	0.0849
H3255	0.532	0.69	0.508	0.335	0.305	0.331	0.334	0.351	0.315	0.281	0.831	0.777	0.516	0.591	0.383	0.949	0.95	0.726	0.66	0.668
NCI-H650	0.948	1.03	0.827	0.456	0.312	0.29	0.299	0.26	0.237	0.161	0.683	0.836	0.63	0.417	0.222	0.859	0.977	0.563	0.538	0.207
NCI-H2347	0.892	1.05	0.997	0.51	0.478	0.314	0.397	0.375	0.381	0.346	1.06	1.32	0.716	0.572	0.515	0.685	0.828	0.311	0.374	0.367
EKVX	0.894	0.738	0.683	0.345	0.37	0.358	0.434	0.21	0.375	0.282	1	1.18	0.4	0.419	0.372	0.759	0.818	0.268	0.344	0.272
EPLC-272H	0.889	0.847	0.797	0.308	0.176	0.359	0.284	0.326	0.339	0.304	0.89	1.15	0.669	0.958	0.526	0.272	0.269	0.183	0.182	0.0802
LXF-289	0.923	1.04	0.9	0.332	0.162	0.618	0.606	0.621	0.487	0.331	1.01	1.07	0.994	0.75	0.252	1.07	1.1	1.23	0.892	0.4
NCI-H3122	0.737	0.709	0.778	0.378	0.349	0.218	0.219	0.164	0.182	0.165	1.04	0.986	1.04	0.816	0.47	0.998	0.998	0.834	0.607	0.181
NCI-H1755	0.939	0.93	0.906	0.658	0.58	0.436	0.397	0.454	0.429	0.456	0.995	1.02	0.887	0.9	0.969	0.45	0.487	0.407	0.403	0.52
HCC-78	0.287	0.266	0.285	0.222	0.174	0.403	0.522	0.534	0.402	0.378	0.487	0.5	0.35	0.314	0.229	0.808	0.771	0.392	0.658	0.409
LOU-NH91	0.604	0.498	0.469	0.388	0.322	0.556	0.545	0.516	0.468	0.428	0.563	0.502	0.498	0.435	0.375	0.784	0.836	0.67	0.656	0.482
NCI-H322M	0.738	0.84	0.81	0.859	0.559	0.526	0.481	0.436	0.467	0.445	1.27	1.22	0.994	1.17	1.07	0.473	0.562	0.47	0.502	0.473
HCC-827	0.925	1	0.852	0.599	0.233	0.418	0.475	0.341	0.161	0.156	1.09	1.06	1.07	0.803	0.458	0.206	0.223	0.185	0.167	0.177
